Columns and labels:
[1] = test system: wound region of rabbit ears (granulation tissue, capillaries); assay: In vivo wound healing assay (rabbit ear wounds); set-up: species or system New Zealand White rabbits; settings: for Area of granulation tissue / Number of blood vessels / increment of the area of granulation tissue, in words / increment of the number of blood vessels, in words: 5 μM; for Area of granulation tissue / Number of blood vessels: spotted or injected intradermally to wound, negative control = 100%; for increment of the area of granulation tissue, in words / increment of the number of blood vessels, in words: comment on Table 1
Procedure: Female New Zealand White rabbits (body weight 2.0 kg) were used as experimental animals in this assay. PBS solution containing 0.1% BSA (BSA-PBS solution) was prepared as control solution for negative control group (comparative example 1). sphingosylphosphorylcholine (comparative example 2), phytosphingosine (comparative example 3), N-acethylphytosphingosine (comparative example 4) as positive control group, and tetraacetyl phytosphingosine (example 1) were dissolved in ethanol or methanol respectively. Each portion of the solutions was added to silicone glass tube. Then, it was charged with N2 gas, and added 0.1% BSA-PBS solution. After coupling them with water sonicator and vortex, these solutions were spotted on and injected intradernally to wound region of experimental animals. At the same time, to study an effect of the angiogenesis as concentrations of tetraacethylsphingosine, the animal was treated with 0.1 μM, 1 μM, 2 μM and 5 μM of tetraacethylsphingosine, and campared with the results. Experimental animals were put into special stainless cages which was designed suitably to assay experimental animals, anesthetized by injecting ketanine (3-4 mg/kg) intramuscularly. The hair and corneous tissue of innerside of both ears were removed with shaving and washing, and then were disinfected with 70% ethanol. Four wound regions per ear were formed by using 6 mm punch for sldn histological examination (Stiefel, Germany) under sterile condition if possible, and each wound region was spotted or injected intradennally 30-50 μl of the control solution or each treatment material. Wound regions were sealed with cathereep (Nichiban Co., Tokyo Japan) which was cut in size which are greater than that of wound region to prevent contamination of the wound regions and formation of crust. Then, the wound regions were protected with 2×2 gauze, and ears of rabbit were bandaged with elastopore (Nichiban Co., Tokyo Japan). Subsequently, the rabbits were bred in a cage per a rabbit. After 48 hrs, same procedure was repeated. On 4 days and 8 days after forming wound regions, sacrificing the rabbits and treating tissue for histological study. For histological study, wound tissues were fixed with 10% formalin, cut it in half longitudinally and made paraffin block. Then, approximately 5 μm of segment was made, attached it to slide and stained with hematoxylin and eosin to observe a change of epidermis and dermis, and stained with Massons Trichrome to observe a degree of collagen formation of granulation tissue.
First, stained tissue specimen was calibrated with ocular micrometer of optical microscope for image analysis. Then, After photographing each histological change aspects with digital camera under 40× and 100× objective lens and saving them on computer (Pentium III), image analysis was carried out with Scion Image for Windows software which was provided by (C) 2000 Scion corporation as follows: that is, degree of epidermis migration could be determined by measuring the distance from left to right boundary of wound, and thickness of newly formed epidermis could be determined by measuring the thickness of three spots in 1 mm of pitch and averaging measured values. To compare with degree of granulation tissue formation of dermis, three methods were used: 1) A method of measuring total area of newly formed granulation tissue and comparing with it; 2) A method of counting the number of cells such as fibroblast presented in six spots of center region of wound under high magnification (100×) and comparing with it; and 3) A method of determining degree of angiogenesis by counting the number of capillaries in granulation tissue in a same way as described above. If there was eschar, it wasn't determined. The data obtained from the negative control group, the positive control group and the experinental group were analyzed statistically by carrying out paired student's t test. […]

[2] = test system: HUVEC (human umbilical vein endothelial cell); assay: Angiogenesis test of HUVEC (tube formation test); format: cell-based; settings: FIG. 4 and FIG. 5
Procedure: Above suspension procedure was repeated twice.
Matrigel was prepared as follows: First, collagen solution was prepared by mixing commercially available acid-soluble porcine type I collagen (3.0 mg/ml), 5× DMEM and buffer (0.05 N NaOH, 2.2% NaHCO3, 200 mM HEPES; 7:2:1), loaded to 24 well or 96 well (100-300 μl/well) dividedly, and then incubated for approximately 10 mins to form a gel due to polymerization of collagen. Primary culture was carried to obtain HUVEC (those which were passaged five times), removed cells at 37° C., washed cells with PBS, detached cells with trypsin/EDTA, loaded cells to wells (4-6×10^4 cells/well), and then fiuther incubated for 12-18 hrs.

endothelial cells = assay: Migration assay of endothelial cells (Transwell); format: cell-based; settings: 0.1 μM, 1 μM and 5 μM; 2 hrs; fewer migrated cells with increasing concentration; FIG. 6 and FIG. 7
Procedure: Transwell membranes were coated with 0.2% gelatin, and then were left for 12 hrs at 4° C. The membrane for control group was treated with BSA-PBS as described in the above examples, whereas the membranes for experimental group were treated with 0.1 μM, 1 μM and 5 μM of tetraacetylphytosphingosine solution according to the present invention respectively as described in the above examples. After incubating these membranes for 2 hrs, staining them with Diff Quick solution, and then observing them on slide glass.

Compound | Area of granulation tissue [1] [%] | Number of blood vessels [1] [%] | increment of the area of granulation tissue, in words [1] | increment of the number of blood vessels, in words [1] | formation of blood vessels (tube formation), in words ([2]; 0.1 μM) | formation of blood vessels (tube formation), in words ([2]; 1 μM) | number of blood vessels (angiogenesis), in words ([1]; 0.1 μM, 1 μM, 2 μM and 5 μM, 4 days after treatment, vs negative control, FIG. 1) | area of granulation tissue, in words ([1]; 0.1 μM, 1 μM, 2 μM and 5 μM, 4 days after treatment, vs negative control, FIG. 2) | migration of endothelial cells, in words (endothelial cells)
CCCCCCCCCCCCCC[C@@H](O)[C@@H](O)[C@H](CO)NC(C)=O [NAPS, N-acethylphytosphingosine] | 212 | 96 | – | – | – | – | – | – | –
CCCCCCCCCCCCCC[C@@H](O)[C@@H](O)[C@@H](N)CO [PS, phytosphingosine] | 112 | 106 | – | – | – | – | – | – | –
CCCCCCCCCCCCC/C=C/[C@@H](O)[C@@H](N)COP(=O)([O-])OCC[N+](C)(C)C [SPC, sphingosylphosphorylcholine] | 151 | 148 | prompted increment | prompted increment | – | – | – | – | –
tetraacetylphytosphingosine [TAPS] | 76 | 31 | inhibited increment | inhibited increment | inhibited effectively a formation of blood vessels | inhibited nearly completely a formation of blood vessels | inhibited angiogenesis greatly | decreased the area of granulation tissue | migration of endothelial cells were inhibited

Reference: US20060025377A1, “Inhibitor of angiogenesis and kit for treating cancer comprising the inhibitor” (priority 2002, published 2006)
